Consider 1 compound from patent publication US20040146554A1, “Method for the administration of acid-labile drugs” (priority 2000, published 2004).

Molecules are shown by their SMILES.

A short description of data set [1]: Suspending PPI capsule granules or tablets in calcium carbonate suspension. The class given is physicochemical. To be noted: granular contents of capsule (20 mg omeprazole, 30 mg lansoprazole) in 10 cc of 4 gm % or 8 gm % calcium carbonate suspension. The protocol:
More specifically, suspensions of calcium carbonate were produced by dissolving either 400 mg or 800 mg of calcium carbonate in 10 cc of water, resulting in suspensions of 4 gm % and 8 gm %, respectively. In separate 10 cc preparations of either strength of the calcium carbonate suspension, the granular contents of a 20 mg omeprazole capsule, a 30 mg lansoprazole capsule, a 20 mg rabeprazole tablet, and a 40 mg pantoprazole tablet were suspended. In approximately 30 minutes, the granules of the omeprazole and lansoprazole capsules were in complete suspension. In approximately two hours, the contents of the tablets of rabeprazole and pantoprazole had completely suspended.

For data set [2], the system named is gastric acid secretion. To be noted: intact granules suspended in orange juice, via gastrostomy tube; cited from earlier work.

`Cc1c(OCC(F)(F)F)ccnc1C[S+]([O-])c1nc2ccccc2[nH]1` (centres unmarked) [lansoprazole]: the “time until granules were in complete suspension” value in data set [1] is “approximately 30 minutes”. Besides, the “suppression of gastric acid secretion” value in data set [2] is “produced the desired effect of suppressing gastric acid secretion”.
